Tests used:
[1] = molecular target: 72 kDa type IV collagenase (Homo sapiens, UniProt P08253); assay: (§1) Inhibition of human recombinant MMP-2 (34 to 660 residues) expressed in CHO cells using (7-methoxycoumarin-4-y1)-acetyl-Pro-Leu-Gly-Leu-[3-(2,4-dinitropheny1)-L-2,3-diaminopropionyl]-Ala-Arg-NH2 as substrate preincubated with enzyme for 30 mins followed by substrate addition and measured after 10 mins by fluorescence based analysis; format: cell-based
[2] = molecular target: Matrix metalloproteinase-9 (Homo sapiens, UniProt P14780, Q279R); assay: as §1, with “MMP-9 (20” for “MMP-2 (34”, “707” for “660”, “residues) Gln279Arg mutant” for “residues)”; format: cell-based
Matrix metalloproteinase-9, sequence (P14780 107-707 Q279R limits assumed): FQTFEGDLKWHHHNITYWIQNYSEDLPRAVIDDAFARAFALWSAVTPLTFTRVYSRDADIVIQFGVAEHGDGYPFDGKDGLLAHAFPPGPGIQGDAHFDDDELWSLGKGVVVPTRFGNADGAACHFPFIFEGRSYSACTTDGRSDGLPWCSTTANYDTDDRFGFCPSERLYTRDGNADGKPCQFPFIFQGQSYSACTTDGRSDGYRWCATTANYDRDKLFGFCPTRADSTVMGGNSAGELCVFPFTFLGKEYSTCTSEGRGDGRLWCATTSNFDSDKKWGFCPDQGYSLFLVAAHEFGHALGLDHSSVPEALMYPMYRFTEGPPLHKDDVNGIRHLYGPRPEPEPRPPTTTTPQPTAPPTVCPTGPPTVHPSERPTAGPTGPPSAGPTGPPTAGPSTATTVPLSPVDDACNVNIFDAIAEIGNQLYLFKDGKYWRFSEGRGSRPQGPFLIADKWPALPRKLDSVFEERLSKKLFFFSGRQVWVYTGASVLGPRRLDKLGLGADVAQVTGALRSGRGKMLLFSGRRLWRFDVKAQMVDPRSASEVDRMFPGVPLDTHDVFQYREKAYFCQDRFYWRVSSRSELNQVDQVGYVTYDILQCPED

[3] = molecular target: Neutrophil collagenase (Homo sapiens, UniProt P22894); assay: as §1, with “MMP-8 (21” for “MMP-2 (34”, “467” for “660”, “NS0” for “CHO”; format: cell-based
Neutrophil collagenase, sequence (P22894 whole entry): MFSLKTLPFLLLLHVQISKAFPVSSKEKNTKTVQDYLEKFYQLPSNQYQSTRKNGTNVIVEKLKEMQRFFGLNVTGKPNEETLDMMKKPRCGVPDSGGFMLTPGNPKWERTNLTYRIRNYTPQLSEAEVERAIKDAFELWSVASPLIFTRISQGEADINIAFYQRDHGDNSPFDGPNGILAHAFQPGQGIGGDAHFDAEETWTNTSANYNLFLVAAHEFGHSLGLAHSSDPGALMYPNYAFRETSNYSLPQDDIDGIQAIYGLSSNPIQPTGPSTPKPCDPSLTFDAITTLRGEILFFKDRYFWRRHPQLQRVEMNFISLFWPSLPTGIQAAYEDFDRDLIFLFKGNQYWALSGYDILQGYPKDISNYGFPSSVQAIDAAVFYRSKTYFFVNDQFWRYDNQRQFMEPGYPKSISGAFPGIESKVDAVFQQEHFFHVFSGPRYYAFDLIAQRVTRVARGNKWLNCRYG

[4] = molecular target: Collagenase 3 (Homo sapiens, UniProt P45452); assay: as §1, with “MMP-13 (20” for “MMP-2 (34”, “471” for “660”, “NS0” for “CHO”
[5] = molecular target: Macrophage metalloelastase (Homo sapiens, UniProt P39900, V97L); assay: as §1, with “MMP-12 (17” for “MMP-2 (34”, “470” for “660”, “residues) Val97Leu mutant” for “residues)”, “NS0” for “CHO”; format: cell-based
Macrophage metalloelastase, sequence (P39900 whole entry V97L): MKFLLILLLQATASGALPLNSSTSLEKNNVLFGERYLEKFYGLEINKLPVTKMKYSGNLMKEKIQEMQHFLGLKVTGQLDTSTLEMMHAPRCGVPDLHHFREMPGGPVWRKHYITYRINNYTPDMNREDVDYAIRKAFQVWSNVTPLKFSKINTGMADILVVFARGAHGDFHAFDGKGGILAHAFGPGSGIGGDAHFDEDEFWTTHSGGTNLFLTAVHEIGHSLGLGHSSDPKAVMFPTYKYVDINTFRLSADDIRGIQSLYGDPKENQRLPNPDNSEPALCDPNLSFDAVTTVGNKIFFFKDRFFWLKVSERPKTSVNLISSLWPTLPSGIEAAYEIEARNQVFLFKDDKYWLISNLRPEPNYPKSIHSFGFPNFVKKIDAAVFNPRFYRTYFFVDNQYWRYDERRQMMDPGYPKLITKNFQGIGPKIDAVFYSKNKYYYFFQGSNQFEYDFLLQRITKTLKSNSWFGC

72 kDa type IV collagenase, sequence (P08253 whole entry, the tested form may be a part): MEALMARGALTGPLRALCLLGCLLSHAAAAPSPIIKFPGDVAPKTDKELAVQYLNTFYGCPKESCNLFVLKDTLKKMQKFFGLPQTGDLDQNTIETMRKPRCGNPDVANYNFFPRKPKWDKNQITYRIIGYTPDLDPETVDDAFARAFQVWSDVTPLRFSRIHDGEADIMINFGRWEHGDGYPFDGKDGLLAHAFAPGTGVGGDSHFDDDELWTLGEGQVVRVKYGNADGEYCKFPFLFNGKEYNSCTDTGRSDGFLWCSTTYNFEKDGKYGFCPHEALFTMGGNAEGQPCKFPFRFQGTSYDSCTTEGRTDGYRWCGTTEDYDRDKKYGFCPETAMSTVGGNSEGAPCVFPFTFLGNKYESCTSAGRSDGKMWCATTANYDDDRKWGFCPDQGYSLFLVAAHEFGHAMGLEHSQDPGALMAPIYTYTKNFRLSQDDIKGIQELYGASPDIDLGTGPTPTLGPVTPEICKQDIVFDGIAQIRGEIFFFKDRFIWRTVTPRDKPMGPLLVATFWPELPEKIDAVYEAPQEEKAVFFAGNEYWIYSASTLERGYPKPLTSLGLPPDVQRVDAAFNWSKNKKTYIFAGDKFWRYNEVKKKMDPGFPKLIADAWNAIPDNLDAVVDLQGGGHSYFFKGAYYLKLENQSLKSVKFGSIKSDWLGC

Structure (SMILES) | IC50 [1] [nM] | IC50 [2] [nM] | IC50 [3] [nM] | IC50 [4] [nM] | IC50 [5] [nM]
CCN([C@@H](C(=O)O)C(C)C)S(=O)(=O)c1ccc(-c2nc(-c3ccc(C)s3)no2)cc1 | 0.7 | 33 | 149 | 252 | 58
Cc1ccc(-c2noc(-c3ccc(S(=O)(=O)N(C)[C@@H](C(=O)O)C(C)C)cc3)n2)s1 | 5 | 36 | 13 | 370 | 37
CCCCCCCCN([C@@H](C(=O)O)C(C)C)S(=O)(=O)c1ccc(-c2nc(-c3ccc(C)s3)no2)cc1 | 990 | 4000 | – | > 10000 | 3600
CCCCCN([C@@H](C(=O)O)C(C)C)S(=O)(=O)c1ccc(-c2nc(-c3ccc(C)s3)no2)cc1 | 32 | 87 | 466 | 104 | 162
CCCCCCN([C@@H](C(=O)O)C(C)C)S(=O)(=O)c1ccc(-c2nc(-c3ccc(C)s3)no2)cc1 | 80 | 329 | > 10000 | 333 | 527
CC(C)[C@@H](NS(=O)(=O)c1ccc(-c2nc(-c3ccc(Cn4cc(CCCCCF)nn4)s3)no2)cc1)C(=O)O | 22 | 1000 | 89 | 36 | 29
Cc1ccc(-c2noc(-c3ccc(S(=O)(=O)N(CCOCOCCCOCCN=[N+]=[N-])[C@@H](C(=O)O)C(C)C)cc3)n2)s1 | 8 | 36 | 83 | 93 | 182

Other lines, results leading:

IC50 [1] [nM] | IC50 [2] [nM] | IC50 [3] [nM] | IC50 [4] [nM] | IC50 [5] [nM] | Structure (SMILES)
5 | 95 | 580 | 987 | 113 | Cc1ccc(-c2noc(-c3ccc(S(=O)(=O)N(Cc4ccccc4)[C@@H](C(=O)O)C(C)C)cc3)n2)s1
10 | 87 | 547 | 212 | 105 | CCCCN([C@@H](C(=O)O)C(C)C)S(=O)(=O)c1ccc(-c2nc(-c3ccc(C)s3)no2)cc1
3 | 25 | 101 | 96 | 41 | Cc1ccc(-c2noc(-c3ccc(S(=O)(=O)N(CCCCF)[C@@H](C(=O)O)C(C)C)cc3)n2)s1
57 | 933 | 923 | 2000 | 4000 | Cc1ccc(-c2noc(-c3ccc(S(=O)(=O)N(CCCCCCCCCCCCN=[N+]=[N-])[C@@H](C(=O)O)C(C)C)cc3)n2)s1
28 | 154 | 371 | 391 | 164 | Cc1ccc(-c2noc(-c3ccc(S(=O)(=O)N(CCCC(F)(F)F)[C@@H](C(=O)O)C(C)C)cc3)n2)s1
0.59 | 34 | 90 | 458 | 36 | Cc1ccc(-c2noc(-c3ccc(S(=O)(=O)N(CCF)[C@@H](C(=O)O)C(C)C)cc3)n2)s1
16 | 102 | 22 | 12 | 13 | CC(C)[C@@H](NS(=O)(=O)c1ccc(-c2nc(-c3ccc(Cn4cc(CCCF)nn4)s3)no2)cc1)C(=O)O
5 | 92 | 190 | 350 | 26 | CCCN([C@@H](C(=O)O)C(C)C)S(=O)(=O)c1ccc(-c2nc(-c3ccc(C)s3)no2)cc1
4 | 13 | 26 | 57 | 14 | Cc1ccc(-c2noc(-c3ccc(S(=O)(=O)N[C@@H](C(=O)O)C(C)C)cc3)n2)s1
> 10000 | > 10000 | > 10000 | > 10000 | > 10000 | CCCCCCCCCCCCCCCCN([C@@H](C(=O)O)C(C)C)S(=O)(=O)c1ccc(-c2nc(-c3ccc(C)s3)no2)cc1

— ChEMBL document CHEMBL5325449, “Influence of N-arylsulfonamido d-valine N-substituents on the selectivity and potency of matrix metalloproteinase inhibitors” (Bioorg Med Chem, 2023)
